Bridge positions count the residues as written; N and C are the ends. Square brackets hold non-standard residues; d marks the D form. Peptide text beside a SMILES is read from it. Hyp = O=C(O)[C@@H]1C[C@@H](O)CN1

In one data set the target is T1, hAMY3 receptor (Homo sapiens, UniProt O60896+P30988).
T1 sequence (P30988 25-474): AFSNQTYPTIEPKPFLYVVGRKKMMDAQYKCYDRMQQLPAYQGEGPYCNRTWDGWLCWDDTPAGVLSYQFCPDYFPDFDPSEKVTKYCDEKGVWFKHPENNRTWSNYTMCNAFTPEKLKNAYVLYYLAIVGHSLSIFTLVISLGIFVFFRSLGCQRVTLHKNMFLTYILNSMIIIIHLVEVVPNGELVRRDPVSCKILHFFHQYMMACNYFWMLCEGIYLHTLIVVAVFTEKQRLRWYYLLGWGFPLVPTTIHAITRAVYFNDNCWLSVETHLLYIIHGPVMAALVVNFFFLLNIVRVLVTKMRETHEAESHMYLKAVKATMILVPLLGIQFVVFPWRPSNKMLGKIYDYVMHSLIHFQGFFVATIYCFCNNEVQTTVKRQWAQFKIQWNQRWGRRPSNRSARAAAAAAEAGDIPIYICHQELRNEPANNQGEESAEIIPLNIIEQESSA
T1 sequence (O60896 24-148 partner): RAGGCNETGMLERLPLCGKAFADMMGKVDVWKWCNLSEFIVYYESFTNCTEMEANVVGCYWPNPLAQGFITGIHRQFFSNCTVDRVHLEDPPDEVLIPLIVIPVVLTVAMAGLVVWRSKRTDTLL
Description: cAMP assay for in vitro receptor activation, hAMY3-R. Conditions: cAMP assay, hAMY3 receptor; read-out: hAMY3R EC50. It counts as cell-based. The essentials: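 Monoclonal cell line stably overexpressing hAMY3 receptor, plated in DPBS with 0.05% casein and 0.5 mM IBMX, was stimulated with graded compound doses for 30 min at room temperature. cAMP accumulation was read by time-resolved FRET one hour after adding detection reagents.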
A general note: cAMP levels reflect the balance of adenylyl cyclase and phosphodiesterase activity.

The target of a further data set is hAM1 receptor (Homo sapiens, UniProt O60895+Q16602). Description: cAMP assay for in vitro receptor activation, hAM1-R. The class given is cell-based. Conditions: cAMP assay, hAM1 receptor; read-out: hAM1R EC50. The procedure, abridged:
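Read-out is intracellular cAMP as a measure of receptor activation. Cells stably overexpressing hAM1 were subcloned to a monoclonal line, then thawed and seeded at 8000 cells/well in DPBS with 0.05% casein and the phosphodiesterase inhibitor IBMX at 0.5 mM.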

Data set [1] can be described thus: Physical stability of peptide analogues (Thioflavin T fibrillation). Conditions: maximum ThT signal normalized between hAMY maximum and buffer background; 40° C., shaking, four days; pH 7 per table title. The class given is physicochemical. The procedure, abridged: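 Maximum ThT emission at 480 nm, after LOESS smoothing, is given as percent of the span from buffer background to hAMY. Conditions: 50 mM buffer at pH 4 or 7, 4 μM dye, 40 °C, repeated shaking, readings every 10 min for four days.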

hAM1 receptor, sequence (Q16602 23-461): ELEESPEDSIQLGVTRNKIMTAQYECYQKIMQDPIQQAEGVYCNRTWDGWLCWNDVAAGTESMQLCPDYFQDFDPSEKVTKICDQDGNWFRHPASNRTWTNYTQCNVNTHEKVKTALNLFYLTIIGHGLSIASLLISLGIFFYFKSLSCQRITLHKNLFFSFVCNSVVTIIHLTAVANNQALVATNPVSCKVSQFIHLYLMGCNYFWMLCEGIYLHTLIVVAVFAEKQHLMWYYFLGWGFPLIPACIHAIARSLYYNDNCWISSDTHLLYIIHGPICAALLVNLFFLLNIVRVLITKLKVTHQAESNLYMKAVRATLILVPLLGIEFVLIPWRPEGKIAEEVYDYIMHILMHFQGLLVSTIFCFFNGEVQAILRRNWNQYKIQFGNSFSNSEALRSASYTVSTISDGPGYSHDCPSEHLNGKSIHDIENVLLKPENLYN
hAM1 receptor, sequence (O60895 43-175 partner): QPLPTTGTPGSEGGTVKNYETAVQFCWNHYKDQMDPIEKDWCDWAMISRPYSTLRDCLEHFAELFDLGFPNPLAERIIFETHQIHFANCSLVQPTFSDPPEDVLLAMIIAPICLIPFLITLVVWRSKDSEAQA

In the case of `CC[C@H](C)[C@H](NC(=O)[C@H](CCC(N)=O)NC(=O)[C@H](Cc1c[nH]cn1)NC(=O)[C@H](C)NC(=O)[C@H](CC(C)C)NC(=O)[C@H](CCCNC(=N)N)NC(=O)[C@H](CCC(N)=O)NC(=O)[C@@H](NC(=O)[C@@H](NC(=O)[C@@H]1CSSC[C@H](NC(=O)[C@@H](N)CCCCN)C(=O)N[C@@H](CC(N)=O)C(=O)N[C@@H]([C@@H](C)O)C(=O)N[C@@H](C)C(=O)N[C@@H]([C@@H](C)O)C(=O)N1)[C@@H](C)O)C(C)C)C(=O)N[C@@H](Cc1ccc(O)cc1)C(=O)N[C@@H](CCC(N)=O)C(=O)N[C@@H](Cc1ccccc1)C(=O)N[C@H](C(=O)N[C@@H](CC(=O)O)C(=O)N[C@@H](C)C(=O)N[C@@H](CC(=O)O)C(=O)N[C@@H](CCCCN)C(=O)N[C@@H](CC(=O)O)C(=O)N[C@@H](CC(N)=O)C(=O)N[C@H](C(=O)N[C@@H](C)C(=O)N1CCC[C@H]1C(=O)N1CCC[C@H]1C(=O)N[C@H](C(=O)N[C@@H](CC(N)=O)C(=O)N[C@H](C(=O)NCC(=O)N[C@@H](CO)C(=O)N[C@@H](CC(N)=O)C(=O)NCC(=O)N1C[C@H](O)C[C@H]1C(N)=O)C(C)C)[C@@H](C)O)C(C)C)[C@@H](C)O` [compound 64] (H-KCNTATCTVQRLAHQIYQFTDADKDNVAPPTNVGSNG[Hyp]-NH2; disulfide 2-7), the EC50 is 0.012 nM at hAMY3 receptor and over 5 µM on hAM1 receptor. Moreover, the “Max ThT signal (%)” value in data set [1] worked out at 2.700%.
In the same order, the values of `CC[C@H](C)[C@H](NC(=O)[C@H](CCC(N)=O)NC(=O)[C@H](Cc1c[nH]cn1)NC(=O)[C@H](C)NC(=O)[C@H](CC(C)C)NC(=O)[C@H](CCCNC(=N)N)NC(=O)[C@H](CCC(N)=O)NC(=O)[C@@H](NC(=O)[C@@H](NC(=O)[C@@H]1CSSC[C@H](NC(=O)[C@@H](N)CCCCN)C(=O)N[C@@H](CC(N)=O)C(=O)N[C@@H]([C@@H](C)O)C(=O)N[C@@H](C)C(=O)N[C@@H]([C@@H](C)O)C(=O)N1)[C@@H](C)O)C(C)C)C(=O)N[C@@H](Cc1ccc(O)cc1)C(=O)N[C@@H](CCC(N)=O)C(=O)N[C@@H](Cc1ccccc1)C(=O)N[C@@H](CC(=O)O)C(=O)N[C@@H](CCCCN)C(=O)N[C@@H](CC(=O)O)C(=O)N[C@@H](CCCCN)C(=O)N[C@@H](CC(=O)O)C(=O)N[C@@H](CC(N)=O)C(=O)N[C@H](C(=O)N[C@@H](C)C(=O)N1CCC[C@H]1C(=O)N1CCC[C@H]1C(=O)N[C@H](C(=O)N[C@@H](CC(N)=O)C(=O)N[C@H](C(=O)NCC(=O)N[C@@H](CO)C(=O)N[C@@H](CC(N)=O)C(=O)NCC(=O)N1C[C@H](O)C[C@H]1C(N)=O)C(C)C)[C@@H](C)O)C(C)C` [compound 65] (H-KCNTATCTVQRLAHQIYQFDKDKDNVAPPTNVGSNG[Hyp]-NH2; disulfide 2-7; N-terminus assumed) are 0.012 nM, over 5 µM and 1.000%.
The like results for `CC[C@H](C)[C@H](NC(=O)[C@H](CCC(N)=O)NC(=O)[C@H](Cc1c[nH]cn1)NC(=O)[C@H](C)NC(=O)[C@H](CC(C)C)NC(=O)[C@H](CCCNC(=N)N)NC(=O)[C@H](CCC(N)=O)NC(=O)[C@@H](NC(=O)[C@@H](NC(=O)[C@@H]1CSSC[C@H](NC(=O)[C@@H](N)CCCCN)C(=O)N[C@@H](CC(N)=O)C(=O)N[C@@H]([C@@H](C)O)C(=O)N[C@@H](C)C(=O)N[C@@H]([C@@H](C)O)C(=O)N1)[C@@H](C)O)C(C)C)C(=O)N[C@@H](Cc1ccc(O)cc1)C(=O)N[C@@H](CCC(N)=O)C(=O)N[C@@H](C)C(=O)N[C@H](C(=O)N[C@@H](CC(=O)O)C(=O)N[C@@H](CCCCN)C(=O)N[C@@H](CC(=O)O)C(=O)N[C@@H](CCCCN)C(=O)N[C@@H](CC(=O)O)C(=O)N[C@@H](CC(N)=O)C(=O)N[C@H](C(=O)N[C@@H](C)C(=O)N1CCC[C@H]1C(=O)N1CCC[C@H]1C(=O)N[C@H](C(=O)N[C@@H](CC(N)=O)C(=O)N[C@H](C(=O)NCC(=O)N[C@@H](CO)C(=O)N[C@@H](CC(N)=O)C(=O)NCC(=O)N1C[C@H](O)C[C@H]1C(N)=O)C(C)C)[C@@H](C)O)C(C)C)[C@@H](C)O` [compound 114] (H-KCNTATCTVQRLAHQIYQATDKDKDNVAPPTNVGSNG[Hyp]-NH2; disulfide 2-7; N-terminus assumed) were, in that order, 0.022 nM, over 5 µM and 2.200%.
The like results for `CC[C@H](C)[C@H](NC(=O)[C@H](CCC(N)=O)NC(=O)[C@H](Cc1c[nH]cn1)NC(=O)[C@H](C)NC(=O)[C@H](CC(C)C)NC(=O)[C@H](CCCNC(=N)N)NC(=O)[C@H](CCC(N)=O)NC(=O)[C@@H](NC(=O)[C@@H](NC(=O)[C@@H]1CSSC[C@H](NC(=O)CN)C(=O)N[C@@H](CCCNC(=N)N)C(=O)N[C@@H](Cc2c[nH]c3ccccc23)C(=O)NCC(=O)N[C@@H]([C@@H](C)O)C(=O)N1)[C@@H](C)O)C(C)C)C(=O)N[C@@H](Cc1ccc(O)cc1)C(=O)N[C@@H](CCC(N)=O)C(=O)N[C@@H](Cc1ccccc1)C(=O)N[C@H](C(=O)N[C@@H](CC(=O)O)C(=O)N[C@@H](CCCCN)C(=O)N[C@@H](CC(=O)O)C(=O)N[C@@H](CCCCN)C(=O)N[C@@H](CC(=O)O)C(=O)N[C@@H](CC(N)=O)C(=O)N[C@H](C(=O)N[C@@H](C)C(=O)N1CCC[C@H]1C(=O)N[C@@H](CCCNC(=N)N)C(=O)N[C@@H](CO)C(=O)N[C@@H](CCCCN)C(=O)N[C@H](C(=O)N[C@@H](CO)C(=O)N1CCC[C@H]1C(=O)N[C@@H](CCC(N)=O)C(=O)N[C@H](C(=O)N1C[C@H](O)C[C@H]1C(N)=O)[C@@H](C)O)[C@@H](C)CC)C(C)C)[C@@H](C)O` [compound 150] (H-GCRWGTCTVQRLAHQIYQFTDKDKDNVAPRSKISPQT[Hyp]-NH2; disulfide 2-7; N-terminus assumed) were, in that order, 0.04 nM, over 5 µM and 18.200%.
In the case of `CC[C@H](C)[C@H](NC(=O)[C@H](CCC(N)=O)NC(=O)[C@H](Cc1c[nH]cn1)NC(=O)[C@H](C)NC(=O)[C@H](CC(C)C)NC(=O)[C@H](CCCNC(=N)N)NC(=O)[C@H](CCC(N)=O)NC(=O)[C@@H](NC(=O)[C@@H](NC(=O)[C@@H]1CSSC[C@H](NC(=O)CN)C(=O)N[C@@H](CCCNC(=N)N)C(=O)N[C@@H](Cc2c[nH]c3ccccc23)C(=O)NCC(=O)N[C@@H]([C@@H](C)O)C(=O)N1)[C@@H](C)O)C(C)C)C(=O)N[C@@H](Cc1ccc(O)cc1)C(=O)N[C@@H](CCC(N)=O)C(=O)N[C@@H](Cc1ccccc1)C(=O)N[C@H](C(=O)N[C@@H](CC(=O)O)C(=O)N[C@@H](CCCCN)C(=O)N[C@@H](Cc1ccccc1)C(=O)N[C@@H](CCCCN)C(=O)N[C@@H](CC(=O)O)C(=O)N[C@@H](CC(N)=O)C(=O)N[C@H](C(=O)N[C@@H](C)C(=O)N1CCC[C@H]1C(=O)N[C@@H](CCCNC(=N)N)C(=O)N[C@@H](CO)C(=O)N[C@@H](CCCCN)C(=O)N[C@H](C(=O)N[C@@H](CO)C(=O)N1CCC[C@H]1C(=O)N[C@@H](CCC(N)=O)C(=O)N[C@H](C(=O)N1C[C@H](O)C[C@H]1C(N)=O)[C@@H](C)O)[C@@H](C)CC)C(C)C)[C@@H](C)O` [compound 171] (H-GCRWGTCTVQRLAHQIYQFTDKFKDNVAPRSKISPQT[Hyp]-NH2; disulfide 2-7; N-terminus assumed), the EC50 at hAMY3 receptor is 0.064 nM; on hAM1 receptor it was over 5 µM. Besides, in data set [1], the “Max ThT signal (%)” value amounted to 5.000%.
In the same order, the values of `CC[C@H](C)[C@H](NC(=O)[C@H](CCC(N)=O)NC(=O)[C@H](Cc1c[nH]cn1)NC(=O)[C@H](C)NC(=O)[C@H](CC(C)C)NC(=O)[C@H](CCCNC(=N)N)NC(=O)[C@H](CCC(N)=O)NC(=O)[C@@H](NC(=O)[C@@H](NC(=O)[C@@H]1CSSC[C@H](NC(=O)[C@@H](N)CCCCN)C(=O)N[C@@H](CC(N)=O)C(=O)N[C@@H]([C@@H](C)O)C(=O)N[C@@H](C)C(=O)N[C@@H]([C@@H](C)O)C(=O)N1)[C@@H](C)O)C(C)C)C(=O)N[C@@H](Cc1ccc(O)cc1)C(=O)N[C@@H](Cc1ccccc1)C(=O)N[C@H](C(=O)N[C@@H](CC(=O)O)C(=O)N[C@@H](CCCCN)C(=O)N[C@@H](CC(=O)O)C(=O)N[C@@H](CCCCN)C(=O)N[C@@H](CC(=O)O)C(=O)N[C@@H](CC(N)=O)C(=O)N[C@H](C(=O)N[C@@H](C)C(=O)N1CCC[C@H]1C(=O)N1CCC[C@H]1C(=O)N[C@H](C(=O)N[C@@H](CC(N)=O)C(=O)N[C@H](C(=O)NCC(=O)N[C@@H](CO)C(=O)N[C@@H](CC(N)=O)C(=O)NCC(=O)N1C[C@H](O)C[C@H]1C(N)=O)C(C)C)[C@@H](C)O)C(C)C)[C@@H](C)O` [compound 181] (H-KCNTATCTVQRLAHQIYFTDKDKDNVAPPTNVGSNG[Hyp]-NH2; disulfide 2-7; N-terminus assumed) are 0.082 nM, over 5 µM and 8.800%.

By EC50 is commonly meant the concentration at which the effect is half-maximal.

The values are drawn from patent publication US12139520B2 (priority 2020, dated 2024).
